The numbers were not newly measured in publication PMC6572427, “Peptosome Coadministration Improves Nanoparticle Delivery to Tumors through NRP1-Mediated Co-Endocytosis” (Biomolecules, 2019), which cites them from elsewhere.

The conditions of this series: in vivo.

Source text: Therefore, its fluorescence signal can be used to reflect the integrity of peptosomes and estimate the in vivo plasma stability. […] Blood was then collected at different time points after the injection as described in the methods, and the fluorescence signals were detected using an IVIS Spectrum in vivo ...

Regarding CRGDKGPDC [iRGD], the plasma half-life result was “eight”.
